In ChEMBL document CHEMBL4622855, “Secondary metabolites from Isodon ternifolius (D. Don) Kudo and their anticancer activity as DNA topoisomerase IB and Tyrosyl-DNA phosphodiesterase 1 inhibitors” (Bioorg Med Chem, 2020):
The source made the active and inactive calls. The rule behind the calls is not given here.

Columns and labels:
HCT-116 = assay: Cytotoxicity against human HCT116 cells assessed as growth inhibition after 72 hrs by MTT assay; format: functional; settings: HCT-116, 72 h
MCF7 [1] = assay: Cytotoxicity against human MCF7 cells assessed as reduction in cell viability after 72 hrs by MTT assay; format: functional; settings: MCF7, 72 h
[2] = target: T1, DNA topoisomerase I (Bos taurus) (UniProt F1MN93); assay: Inhibition of calf thymus Top1 assessed as reduction in supercoiled pBR322 DNA relaxation at 100 uM measured after 30 mins by agarose gel electrophoresis relative to camptothecin
T1 sequence (whole entry): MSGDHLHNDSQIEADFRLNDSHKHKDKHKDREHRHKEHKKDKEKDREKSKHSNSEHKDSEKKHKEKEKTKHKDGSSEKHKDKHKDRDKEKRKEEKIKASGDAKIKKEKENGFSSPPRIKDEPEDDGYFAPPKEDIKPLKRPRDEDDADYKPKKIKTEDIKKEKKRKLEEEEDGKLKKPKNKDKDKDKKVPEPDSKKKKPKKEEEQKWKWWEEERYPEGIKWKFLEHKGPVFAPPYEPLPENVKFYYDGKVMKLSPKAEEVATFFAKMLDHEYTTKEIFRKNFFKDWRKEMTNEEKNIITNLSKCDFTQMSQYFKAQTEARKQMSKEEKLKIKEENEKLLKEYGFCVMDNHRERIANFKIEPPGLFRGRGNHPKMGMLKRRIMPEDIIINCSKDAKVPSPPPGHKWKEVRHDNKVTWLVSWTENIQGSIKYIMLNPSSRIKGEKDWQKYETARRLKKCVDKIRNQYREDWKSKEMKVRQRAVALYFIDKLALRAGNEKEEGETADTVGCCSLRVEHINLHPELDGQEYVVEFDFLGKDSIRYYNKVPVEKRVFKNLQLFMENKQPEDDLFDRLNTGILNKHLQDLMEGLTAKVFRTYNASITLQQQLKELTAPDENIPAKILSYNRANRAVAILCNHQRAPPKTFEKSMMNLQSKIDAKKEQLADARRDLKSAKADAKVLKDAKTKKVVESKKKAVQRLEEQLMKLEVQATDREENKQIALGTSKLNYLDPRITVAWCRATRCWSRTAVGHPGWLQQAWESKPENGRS

A549 = assay: Cytotoxicity against human A549 cells assessed as growth inhibition after 72 hrs by MTT assay; format: functional; settings: A549, 72 h
[3] = target: Tyrosyl-DNA phosphodiesterase 1 (Homo sapiens, UniProt Q9NUW8); assay: Inhibition of TDP1 (unknown origin) expressed in Escherichia coli BL21 (DE3) using 5'-FAM-AGGATCTAAAAGACTT-BHQ-3' as substrate preincubated for 30 mins followed by substrate addition by fluorescence assay
Sequence of Tyrosyl-DNA phosphodiesterase 1 (Q9NUW8 whole entry): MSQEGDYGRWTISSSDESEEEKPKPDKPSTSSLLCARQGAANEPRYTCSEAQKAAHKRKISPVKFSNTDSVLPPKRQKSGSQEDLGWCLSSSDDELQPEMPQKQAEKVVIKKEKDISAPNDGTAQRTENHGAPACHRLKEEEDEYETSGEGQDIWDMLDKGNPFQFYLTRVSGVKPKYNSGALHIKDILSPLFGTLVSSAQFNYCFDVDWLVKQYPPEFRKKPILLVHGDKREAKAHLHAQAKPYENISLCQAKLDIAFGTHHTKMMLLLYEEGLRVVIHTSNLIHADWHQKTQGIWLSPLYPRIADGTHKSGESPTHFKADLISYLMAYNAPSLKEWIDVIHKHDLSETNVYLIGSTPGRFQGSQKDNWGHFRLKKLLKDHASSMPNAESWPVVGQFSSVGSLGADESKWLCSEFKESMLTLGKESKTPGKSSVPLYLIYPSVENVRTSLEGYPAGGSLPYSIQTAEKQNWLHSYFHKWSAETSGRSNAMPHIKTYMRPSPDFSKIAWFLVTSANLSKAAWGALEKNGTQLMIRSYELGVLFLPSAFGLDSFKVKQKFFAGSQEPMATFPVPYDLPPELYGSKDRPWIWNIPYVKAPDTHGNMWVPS

MCF7 [4] = assay: Synergistic antiproliferative activity against human MCF7 cells assessed as combination index at 50 to 100 uM after 72 hrs in presence of TOP1 inhibitor topotecan by MTT assay; format: functional
[5] = target: T1, DNA topoisomerase I (Bos taurus); assay: Inhibition of calf thymus Top1-mediated supercoiled pBR322 DNA cleavage assessed as nicked DNA content at 50 uM measured after 30 mins by ethidium bromide staining agarose gel electrophoresis; design: scale not given: the % may be the effect or the level left
[6] = target: T1, DNA topoisomerase I (Bos taurus); assay: Inhibition of calf thymus Top1-mediated supercoiled pBR322 DNA cleavage assessed as nicked DNA content at 25 uM measured after 30 mins by ethidium bromide staining agarose gel electrophoresis; design: scale not given: the % may be the effect or the level left
MCF7 [7] = assay: Induction of DNA damage in human MCF7 cells assessed as increase in gammaH2AX foci formation at 0.5 uM measured after 12 hrs by immunofluorescence assay; format: functional, cell-based
MCF7 [8] = assay: Synergistic antiproliferative activity against human MCF7 cells assessed as combination index at 12.5 to 50 uM after 72 hrs in presence of TOP1 inhibitor topotecan by MTT assay; format: functional
[9] = target: T1, DNA topoisomerase I (Bos taurus); assay: Inhibition of calf thymus Top1 assessed as reduction in Top1-supercoiled pBR322 DNA covalent cleavage formation at 25 to 50 uM measured after 30 mins by electrophoretic mobility shift assay
[10] = target: T1, DNA topoisomerase I (Bos taurus); assay: Inhibition of calf thymus Top1 assessed as reduction in supercoiled pBR322 DNA relaxation measured after 30 mins by agarose gel electrophoresis
MCF7 [11] = assay: Induction of DNA damage in human MCF7 cells assessed as increase in gammaH2AX foci formation up to 9 uM measured after 12 hrs by immunofluorescence assay; format: functional, cell-based

| Structure (SMILES) | GI50 (HCT-116) [µM] | GI50 (MCF7 [1]) [µM] | inhibition [2] [%] | GI50 (A549) [µM] | IC50 [3] [µM] | CI (MCF7 [4]) | Activity [5] [%] | Activity [6] [%] | Activity (MCF7 [7]) | CI (MCF7 [8]) | inhibition [9] | inhibition [10] | Activity (MCF7 [11]) |
| --- | --- | --- | --- | --- | --- | --- | --- | --- | --- | --- | --- | --- | --- |
| CC1(C)CC[C@]2(C(=O)O)CC[C@]3(C)C(=CC[C@@H]4[C@@]5(C)CC[C@H](O)C(C)(C)[C@@H]5CC[C@]43C)[C@@H]2C1 [OLEANOLIC_ACID] | > 100 | > 100 | 0 | > 100 | – | – | – | – | – | – | – | – | – |
| C[C@@H]1CC[C@]2(C(=O)O)CC[C@]3(C)C(=CC[C@@H]4[C@@]5(C)C[C@@H](O)OCC(C)(C)[C@@H]5CC[C@]43C)[C@@H]2[C@]1(C)O | 23 | > 100 | < 29 | > 100 | > 100 | – | – | – | – | – | – | – | – |
| C[C@H]1[C@H](C)CC[C@]2(C(=O)O)CC[C@]3(C)C(=CC[C@@H]4[C@@]5(C)C[C@@H](O)[C@H](O)C(C)(C)[C@@H]5CC[C@]43C)[C@H]12 [COROSOLIC ACID] | > 100 | 62 | < 29 | > 100 | > 100 | – | – | – | – | – | – | – | – |
| CC(C)c1cc2c(cc1O)[C@@]1(C)CCC[C@](C)(CO)[C@@H]1CC2 | 51 | 92 | 30 to 59 | 91 | > 100 | – | – | – | – | – | – | – | – |
| CC1(C)CC[C@]2(C(=O)O)CC[C@]3(C)C(=CC[C@@H]4[C@@]5(C)C[C@@H](O)[C@@H](O)[C@@](C)(CO)[C@@H]5CC[C@]43C)[C@@H]2C1 | > 100 | > 100 | 0 | > 100 | – | – | – | – | – | – | – | – | – |
| O=C(/C=C/c1ccc(O)cc1)c1ccc(O)cc1O [ISOLIQUIRITIGENIN] | 39 | > 100 | 30 to 59 | 87 | 55 | <1 | – | – | – | – | – | – | – |
| CC1(C)CC[C@]2(C(=O)O)CC[C@]3(C)C(=CC[C@@H]4[C@@]5(C)C[C@@H](O)[C@@H](O)C(C)(C)[C@@H]5CC[C@]43C)[C@@H]2C1 | 51 | > 100 | 30 to 59 | > 100 | > 100 | – | – | – | – | – | – | – | – |
| C=C1C(=O)O[C@H]2C3=CC[C@@H]4C(C)(C)[C@H](O)CC[C@@]4(C)[C@@H]3CC[C@@H]12 | 35 | 53 | 30 to 59 | 35 | > 100 | – | – | – | – | – | – | – | – |
| C=C1C(=O)[C@]23C[C@H]1CC[C@H]2[C@]1(C)CC[C@@H](O)C(C)(C)[C@H]1C[C@@H]3O | 2.7 | 3.5 | 60 to 89 | 4.8 | > 100 | – | – | – | – | – | – | – | – |
| CC[C@@]1(O)C(=O)OCc2c1cc1n(c2=O)Cc2cc3ccccc3nc2-1 | – | – | – | – | – | – | 18 | 16 | Active | – | – | – | – |
| CC(C)c1cc2c(cc1O)[C@]1(C)CCC[C@](C)(C(=O)O)[C@H]1CC2 | 68 | 60 | 30 to 59 | 36 | > 100 | – | – | – | – | – | – | – | – |
| CC1(C)CC[C@]2(C(=O)O)CC[C@]3(C)C(=CC[C@@H]4[C@@]5(C)C[C@H](O)[C@H](O)[C@@](C)(COC(C)(C)O)[C@@H]5CC[C@]43C)[C@@H]2C1 | 55 | 11 | 60 to 89 | 37 | > 100 | – | – | – | – | – | – | – | – |
| CO[C@@H]1C[C@]2(C)[C@H]3CC=C4[C@H]5[C@](C(=O)O)(CC[C@@H](C)[C@@]5(C)O)CC[C@@]4(C)[C@]3(C)CC[C@H]2C(C)(C)CO1 | 37 | 31 | 30 to 59 | 63 | > 100 | – | – | – | – | – | – | – | – |
| C=C1C(=O)O[C@H]2C3=CC[C@@H]4C(C)(C)C(=O)CC[C@@]4(C)[C@@H]3CC[C@@H]12 | 31 | 15 | 60 to 89 | 51 | > 100 | – | – | – | – | – | – | – | – |
| C[C@@H]1CC[C@]2(C(=O)O)CC[C@]3(C)C(=CC[C@@H]4[C@@]5(C)C[C@@H](O)[C@@H](O)C(C)(C)[C@@H]5CC[C@]43C)[C@@H]2[C@]1(C)O [EUSCAPHIC ACID] | 22 | 41 | > 90 | 43 | > 100 | – | – | – | – | – | – | – | – |
| COc1cc(O)ccc1/C=C/C(=O)c1ccc(O)cc1 [ECHINATIN] | 64 | 43 | 30 to 59 | 36 | 45 | – | – | – | – | <0.3 | – | – | – |
| CC(=O)O[C@H]1CC[C@]2(C)[C@H]3CC=C4[C@H]5[C@](C(=O)O)(CC[C@@H](C)[C@@]5(C)O)CC[C@@]4(C)[C@]3(C)CC[C@H]2C1(C)C | > 100 | > 100 | 0 | > 100 | > 100 | – | – | – | – | – | – | – | – |
| C[C@@H]1CC[C@@]23CC[C@]4(C)[C@@](C=C[C@@H]5[C@@]6(C)CC[C@H](O)C(C)(C)[C@@H]6CC[C@]54C)(OC2=O)C3[C@H]1C (some centres not stated) | > 100 | > 100 | 0 | > 100 | – | – | – | – | – | – | – | – | – |
| CC1(C)CC[C@]2(C(=O)O)CC[C@]3(C)C(=CC[C@@H]4[C@@]5(C)C[C@@H](O)[C@H](O)[C@](C)(CO)[C@@H]5CC[C@]43C)[C@@H]2C1 | 29 | 14 | 60 to 89 | 22 | – | – | – | – | – | – | – | – | – |
| C[C@H]1[C@H](C)CC[C@]2(CO)CC[C@]3(C)C(=CC[C@@H]4[C@@]5(C)CC[C@H](O)C(C)(C)[C@@H]5CC[C@]43C)[C@H]12 [UVAOL] | 37 | 93 | 30 to 59 | 45 | > 100 | – | – | – | – | – | – | – | – |
| CC(=O)O[C@H]1CC[C@]2(C)[C@H]3CC=C4[C@@H]5[C@@H](C)[C@H](C)CC[C@]5(C(=O)O)CC[C@@]4(C)[C@]3(C)CC[C@H]2C1(C)C [O-ACETYLURSOLIC ACID] | 21 | 6.5 | > 90 | 48 | – | – | – | – | – | – | – | – | – |
| COc1cc(/C=C/C(=O)O[C@H]2[C@H](O)C[C@]3(C)[C@H]4CC=C5[C@@H]6CC(C)(C)CC[C@]6(C(=O)O)CC[C@@]5(C)[C@]4(C)CC[C@H]3C2(C)C)ccc1O | 22 | 67 | > 90 | 59 | > 100 | – | 10 | 9 | – | – | Active | Dose-dependent effect | – |
| CC(C)c1ccc(O)c2c1CC[C@H]1[C@@](C)(C(=O)O)CCC[C@]21C | 31 | 60 | 30 to 59 | 41 | > 100 | – | – | – | – | – | – | – | – |
| CC(C)c1ccc2c(c1O)CC[C@@H]1[C@@](C)(CO)CCC[C@@]21C | > 100 | > 100 | 0 | > 100 | > 100 | – | – | – | – | – | – | – | – |
| C=C1C(=O)O[C@H]2C3=CC[C@@H]4[C@](C)(CO)CCC[C@@]4(C)[C@@H]3CC[C@@H]12 | 42 | 40 | 30 to 59 | 51 | – | – | – | – | – | – | – | – | – |
| C[C@H]1[C@H](C)CC[C@]2(C(=O)O)CC[C@]3(C)C(=CC[C@@H]4[C@@]5(C)CCC(=O)C(C)(C)[C@@H]5CC[C@]43C)[C@H]12 [URSONIC ACID] | 5.3 | 12 | > 90 | 57 | – | – | 9 | 11 | – | – | Active | Dose-dependent effect | inactive |
